Earlier results as cited in patent US9314447B2 (Lupin Atlantis Holdings, S.A., priority 2012, dated 2016).

Details: in vivo

## CC(C)(Oc1ccc(C(=O)c2ccc(Cl)cc2)cc1)C(=O)O [Fenofibric acid]
  elimination half-life: about 20 hours
